Source: patent US10889812B2, “Short non-coding protein regulatory RNAs (sprRNAs) and methods of use” (University of Maryland, Baltimore, priority 2014, dated 2021)
“Also recorded” adds a separate entry of the source.

Legend:
[1] = tested on: p-ERM; assay: p-ERM protein levels in HBE4 cells (Western blot); format: cell-based, human; conditions: following treatment
[2] = tested on: p-ERM; assay: IP with anti-p-ERM antibody followed by RT-PCR in transfected H1792 cells; format: binding, human; conditions: H1792 cells transfected with the oligonucleotide
Description: We next wanted to determine the site critical for piR-L-163's binding toP-ERM. We first analyzed the piR-L-163 sequence and identified a candidate motif “UUNNUUUNNUU” (SEQ ID NO:495) with potentially critical for the binding (FIG. 5a). We then generated 5 mutant forms of piR-L-163 named as M1-M5 (FIG. 5b and Table 3) to test their potential impact on the p-ERM binding. For this experiment, we used H1792 cells because these cells expressed extremely low level of endogenous piR-L-163 but considerable amount of p-ERM (FIG. 5c and FIG. 11a). H1792 cells were transfected with Scr (control), Ant-163, piR-L-163 (WT), or Mutant 1 (M1) to Mutant 5 (M5) RNA oligonucletides, respectively. An anti-p-ERM antibody was used for IP followed by RT-PCR using primers specific for Scr, Ant-163, piR-L-163, or M1-M5 (Table 6) to detect the corresponding oligonucleotides.
To amplify sncRNAs, we added an adaptor to the 3′ end, a process including adaptor ligation, RT and PCR (de Vanssay, A. et al. Paramutation in Drosophila linked to emergence of a piRNA-producing locus. Nature 490, 112-115 (2012); Li, Z. et al. Characterization of viral and human RNAs smaller than canonical MicroRNAs. J Virol. 83, 12751-12758 (2009)). For adaptor ligation, the adaptor /5′rapp/CTGTAGGCACCATCAAT/3′ddc/ (SEQ ID NO:499) with both 5′ and 3′ modification was used. Briefly, mixed 1 μl (10 pmol, ˜55 ng) of RNA 3′ adaptor and 4.4 μl (˜100 ng) of purified sncRNAs in a 1.5 ml EP tube; Incubated at 72° C. for 2 min, then placed on ice immediately and kept it on ice for at least 1 min; Added the following reagents (New England Biolabs) to the above tube: 0.8 μl 10×RNA ligase buffer, 1 μl RNase inhibitor, and 1 μl single strand RNA ligase; Mixed it well and incubated at 37° C. for 1 hr, then terminated the reaction at 65° C. for 15 min. For RT, SuperScript™ III First-Strand Synthesis System (Invitrogen) was used according to the manufacturer's instructions with gene specific primer (5′-[…]-3′) (SEQ ID NO:500). For PCR, a common reverse primer (5′-[…]-3′) (SEQ ID NO:501) and primers specific for individual sncRNAs (Table 6). Amplification conditions were denaturation at 95° C. for 30 s (5 min for the first cycle), annealing at 60° C. for 20 s and extension at 72° C. for 20 s (2 min for the last cycle) for 25 cycles.
For IP using anti-human Moesin or p-ERM antibodies, anti-Moesin (Clone Q480, Catalog No. 3150, Cell Signaling) or anti-p-ERM (Clone 41A3, Catalog No. 3149, Cell Signaling) antibodies were used and a rabbit IgG was used as a control. Briefly, Saturated protein G agarose beads (Sigma-Aldrich) with rabbit IgG, anti-Moesin or anti-p-ERM antibodies, respectively (1 μg antibody was used for 4 μl agarose beads) at 4° C. for 3 hrs, centrifuged at 2,200×g for 5 min, and discarded the upper aqueous phase; (2) Protein extracts prepared from cells using lysis buffer (20 mM Tris-cl, pH7.6, 150 mM NaCl, 20 mM KCl, 1.5 mM MgCl2, 0.5% NP-40, 0.5 mM PMSF) were pre-cleared using protein G agarose at 4° C. for 2 hrs, centrifuged at 2,200×g for 5 min, and transferred the upper aqueous phase to above tubes with agarose beads saturated with antibodies, respectively; Kept the tubes rotating overnight at 4° C., centrifuged at 2,200×g for 5 min, and washed the beads with lysis buffer twice; Extracted total RNAs from beads using Trizol Reagent (Life Technologies); Amplification of piR-L-163 or its mutants was performed according to the steps described in the “RT-PCR” section.

[3] = tested on: H1792 cells; assay: Trans-well invasion assay; format: cell-based, human; conditions: H1792, vs control RNA oligonucleotides
Description: (§1) We then tested the potential impact of piR-L-163 in cell migration and invasion, two of the properties involving ERM's biological functions (Fehon, R. G., Mclatchey, A. I. & Bretscher, A. Organizing the cell cortex: the role of ERM proteins. Nat Rev Mol Cell Biol. 11, 276-287 (2010); Hunter, K. W. Ezrin, a key component in tumor metastasis. Trends Mol. Med. 10, 201-204 (2004); Luo, Y. et al. Recognition of CD146 as an ERM-binding protein offers novel mechanisms for melanoma cell migration. Oncogene 31, 306-321 (2013); Clucas, J. & Valderrama, F. ERM proteins in cancer progression. J Cell Sci. 128, 1253 (2015)).
(§2) Briefly, 24 hrs after transfection, 6×10^4 cells were placed in the upper chamber of Matrigel Invasion Chambers (BD Bioscience) with growth factor-free Keratinocyte-SFM and the bottom chamber were exposed to Keratinocyte-SFM medium supplemented with L-Glutamine, prequalified human recombinant EGF 1-53 and BPE. Invading cells were evaluated after 12 hrs according to the manufacturer's instruction. The numbers of invading cells were adjusted 15% downwards for Ant-163 treated cells or 15% upwards for piR-L-163 treated cells to compensate the differences for the proliferation rates.

[4] = tested on: HBE4 cells; assay: Trans-well invasion assay; format: cell-based, human; conditions: HBE4, 12 hrs, vs Scr, after 15% downward adjustment
Description: as §1, §2

[5] = tested on: HBE4 cells; assay: Quantitative cell migration assay; format: cell-based, human; conditions: HBE4, vs Scr control
Description: For cell migration, we used two complementary assays. […] To compensate potential differences in the cell numbers among different treatment conditions, we seeded 10% less cells for Ant-163 treated HBE4 cells and 10% more cells for piR-L-163 transfected H1792 cells.
Two complimentary methods were used. For quantitative fluorescent dye assay, Innocyto™ Cell migration Assay kit (EMD Millipore) was used. Briefly, 24 hrs after treatment, 1×10^5 cells (10% less for Ant-163 treated cells or 10% more for piR-L-163 treated cells) were loaded to the upper chamber with growth factor-free Keratinocyte-SFM for (HBE4 cells) or serum-free DMEM (for H1792 cells) with the bottom chamber exposed to completed culture medium. Negative controls were used with 3 μM Latrunculin A. After 12 hrs incubation, fluorescence was measured using a fluorescence plate reader 485 nm (excitation) and 520 nm (emission) according to the manufacturer's instruction. For wound-healing assay, cells (24 hrs after treatment with different DNA or RNA oligonucleotides) were grown to confluence followed by scratching with a pipette tip to create a gap. The floating cells were removed and the gaps were monitored/photographed every 12 hrs.

[6] = tested on: F-actin and EBP50; assay: Binding of p-ERM/moesin with F-actin and EBP50 in IP products of H522 cells; format: cell-based, human; conditions: together with Moesin-WT

Row | Substance | p-ERM protein levels [1] | oligonucleotide detected by RT-PCR in anti-p-ERM IP products (binding to p-ERM) [2] | invasion capability [3] | invasion capability [4] | cell migration [5] | binding of moesin with F-actin and EBP50 [6]
1 | Ant-163: DNA sequence antisense to piR-L-163, SEQ ID NO:496, 5′-GGTCAGAGAATCAAAGTAACATCATGATAT-3′ (DNA, backbone and methylation of C not given here) | not significantly changed | no RT-PCR band could be detected | no impact | significantly increased invasion capability; also recorded: increased invading cells | significantly increased cell migration | 
2 | piR-L-163: sprRNA, SEQ ID NO:282; piRNA-L aligned to intron 10 of LAMC2; AUAUCAUGAUGUUACUUUGAUUCUCUGACC with 3′ 2′-O-methylation (listed as RNA, chemistry not fully specified; listed as Homo sapiens) |  | strong RT-PCR band was detected | significantly decreased invasion capability; also recorded: significantly reduced the number of invading cells |  |  | enhanced binding with F-actin and EBP50
